From ChEMBL document CHEMBL3421601, “Rapid development of two factor IXa inhibitors from hit to lead” (Bioorg Med Chem Lett, 2015)
pKi: −log10 of the molar value.

What was measured:
Coagulation factor IX = Coagulation factor IX (Homo sapiens, UniProt P00740); test: Inhibition of human factor 9a using CH3SO2-D-CHG-Gly-Arg-AFC.AcOH as substrate by fluorescence assay
Coagulation factor X = Coagulation factor X (Homo sapiens, UniProt P00742); test: Inhibition of human factor 10a using n-Acetyl-KPR-AFC as substrate by fluorescence assay
[1] = biological target: Voltage-gated inwardly rectifying potassium channel KCNH2 (Homo sapiens, UniProt Q12809); test: Inhibition of human ERG
[2] = Inhibition of CYP (unknown origin); assay type: ADME; details: human

Sequence of Coagulation factor IX (P00740 47-191 limits assumed): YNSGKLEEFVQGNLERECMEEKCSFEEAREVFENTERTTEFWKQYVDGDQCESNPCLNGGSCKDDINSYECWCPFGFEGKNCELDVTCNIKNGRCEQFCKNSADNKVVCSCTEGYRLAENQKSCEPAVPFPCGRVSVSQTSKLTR
Sequence of Coagulation factor IX (P00740 227-461 limits assumed): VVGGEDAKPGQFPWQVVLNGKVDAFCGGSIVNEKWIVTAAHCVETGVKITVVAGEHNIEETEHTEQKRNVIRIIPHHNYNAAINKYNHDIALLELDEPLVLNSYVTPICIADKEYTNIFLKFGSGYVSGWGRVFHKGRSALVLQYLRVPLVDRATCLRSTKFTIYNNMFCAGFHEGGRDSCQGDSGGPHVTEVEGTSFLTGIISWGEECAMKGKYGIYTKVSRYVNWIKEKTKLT
Sequence of Coagulation factor X (P00742 41-179 limits assumed): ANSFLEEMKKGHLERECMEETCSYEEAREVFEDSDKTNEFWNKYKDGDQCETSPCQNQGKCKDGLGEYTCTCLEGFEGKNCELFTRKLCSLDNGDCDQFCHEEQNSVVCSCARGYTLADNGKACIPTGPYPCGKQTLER
Sequence of Coagulation factor X (P00742 235-488 limits assumed): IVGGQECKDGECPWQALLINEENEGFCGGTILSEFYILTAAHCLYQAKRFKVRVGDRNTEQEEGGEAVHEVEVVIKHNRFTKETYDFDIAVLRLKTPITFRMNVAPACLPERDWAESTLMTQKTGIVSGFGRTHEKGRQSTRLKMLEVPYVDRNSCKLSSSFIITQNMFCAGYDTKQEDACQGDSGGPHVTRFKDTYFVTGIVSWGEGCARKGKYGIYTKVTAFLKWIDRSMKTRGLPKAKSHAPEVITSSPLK
Sequence of Voltage-gated inwardly rectifying potassium channel KCNH2 (Q12809 whole entry): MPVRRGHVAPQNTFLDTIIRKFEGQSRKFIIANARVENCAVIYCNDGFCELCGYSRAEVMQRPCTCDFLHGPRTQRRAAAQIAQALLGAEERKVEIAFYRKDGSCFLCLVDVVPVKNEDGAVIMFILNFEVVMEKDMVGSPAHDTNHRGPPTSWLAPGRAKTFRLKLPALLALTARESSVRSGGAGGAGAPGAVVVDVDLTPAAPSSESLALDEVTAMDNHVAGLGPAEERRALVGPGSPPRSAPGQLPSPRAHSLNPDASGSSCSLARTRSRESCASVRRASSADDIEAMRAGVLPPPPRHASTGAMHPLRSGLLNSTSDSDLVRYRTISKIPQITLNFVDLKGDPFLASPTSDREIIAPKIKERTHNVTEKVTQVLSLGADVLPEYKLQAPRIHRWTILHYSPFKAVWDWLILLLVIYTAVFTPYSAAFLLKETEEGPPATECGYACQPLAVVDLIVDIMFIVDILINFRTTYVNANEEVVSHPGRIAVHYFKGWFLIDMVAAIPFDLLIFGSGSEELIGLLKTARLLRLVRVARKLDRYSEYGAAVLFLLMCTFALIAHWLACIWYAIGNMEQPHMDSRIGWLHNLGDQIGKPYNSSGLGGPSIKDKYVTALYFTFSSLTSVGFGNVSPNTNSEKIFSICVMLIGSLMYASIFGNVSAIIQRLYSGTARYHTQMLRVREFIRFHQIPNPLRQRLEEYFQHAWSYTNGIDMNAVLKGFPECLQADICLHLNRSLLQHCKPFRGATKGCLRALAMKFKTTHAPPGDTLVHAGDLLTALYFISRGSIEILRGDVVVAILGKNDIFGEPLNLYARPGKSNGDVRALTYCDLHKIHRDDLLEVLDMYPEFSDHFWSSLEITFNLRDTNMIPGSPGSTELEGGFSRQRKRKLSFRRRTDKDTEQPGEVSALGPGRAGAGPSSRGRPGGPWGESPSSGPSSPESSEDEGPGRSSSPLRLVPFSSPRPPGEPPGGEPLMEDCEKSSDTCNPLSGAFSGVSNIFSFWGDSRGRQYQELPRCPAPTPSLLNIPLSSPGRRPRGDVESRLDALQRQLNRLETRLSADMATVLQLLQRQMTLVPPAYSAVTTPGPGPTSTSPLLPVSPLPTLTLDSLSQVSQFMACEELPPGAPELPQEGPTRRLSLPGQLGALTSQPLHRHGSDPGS

| Compound | pKi (Coagulation factor IX) | further results |
| --- | --- | --- |
| Cc1ccc(O)c2c3c(nn12)CCC(C)(NC(=O)c1ccc(-n2cncn2)cc1Cl)C3 (configuration not stated) | 6.81 |  |
| Cc1ccc(O)c2nc(CCNC(=O)c3ccc(-n4cnnc4)cc3Cl)[nH]c12 | 3.88 |  |
| Cc1cc2nc(CCNC(=O)c3ccc(-n4cnnc4)cc3)[nH]c2cc1C |  | pKi (Coagulation factor X): < 4.20 |
| Cc1cc2nc(CCNC(=O)c3ccccc3-n3cnnc3)[nH]c2cc1C | < 3.84 |  |
| Cc1cc2nc(CCNC(=O)c3ccc(C#N)cc3F)[nH]c2cc1C | < 3.84 |  |
| Cc1cc2nc(CCNC(=O)c3ccccc3Cl)[nH]c2cc1C | < 3.84 |  |
| Cc1cc2nc(CCNC(=O)c3ccc(-n4cncn4)cc3Cl)[nH]c2cc1C | 5.67 |  |
| Cc1cc2nc(CCNC(=O)c3ccc(-n4ccnn4)cc3Cl)[nH]c2cc1C | 3.89 |  |
| Cc1cc2nc(CCNC(=O)c3ccc(-n4nccn4)cc3Cl)[nH]c2cc1C | < 3.84 |  |
| Cc1cc2nc(CCNC(=O)c3ccc(-n4ccnc4)cc3Cl)[nH]c2cc1C | 5.25 |  |
| Cc1ccc(O)c2c3c(nn12)CCC(C)(NC(=O)c1ccc(-n2ccnn2)cc1)C3 (configuration not stated) | 6.34 |  |
| Cc1ccc(O)c2c3c(nn12)CCC(C)(NC(=O)c1ccc(C#N)cc1F)C3 (configuration not stated) | 5.70 | pKi (Coagulation factor X): < 4.20 |
| Cc1ccc(O)c2c3c(nn12)CCC(C)(NC(=O)c1ccc(F)cc1)C3 (configuration not stated) | 4.74 |  |
| Cc1ccc(O)c2c3c(nn12)CCC(C)(NC(=O)c1ccc(C#N)cc1)C3 (configuration not stated) | 4.69 |  |
| Cc1ccc(O)c2c3c(nn12)CCC(C)(NC(=O)c1ccccc1Cl)C3 (configuration not stated) | 5.20 |  |
| Cc1ccc(O)c2c3c(nn12)CCC(C)(NC(=O)c1ccc(-n2cnnc2)cc1Cl)C3 (configuration not stated) | 7.05 | pKi (Coagulation factor X): 4.92; inhibition (INH) [1]: Not Active; inhibition (INH) [2]: Not Active |
| Cc1ccc(O)c2c3c(nn12)CCC(C)(NC(=O)c1ccc(-n2ccnn2)cc1Cl)C3 (configuration not stated) | 6.03 |  |
| Cc1ccc(O)c2c3c(nn12)CCC(C)(NC(=O)c1ccc(-n2nccn2)cc1Cl)C3 (configuration not stated) | 4.52 |  |
| Cc1ccc(O)c2c3c(nn12)CCC(C)(NC(=O)c1ccc(-n2ccnc2)cc1Cl)C3 (configuration not stated) | 6.23 |  |
| Cc1ccc(O)c2c3c(nn12)CCC(C)(NC(=O)c1ccc(-n2cccn2)cc1Cl)C3 (configuration not stated) | 5.36 |  |
| Cc1cc2nc(C[C@H](C)NC(=O)c3ccc(-n4cnnc4)cc3Cl)[nH]c2cc1C | 4.26 |  |
| Cc1cc2nc(C[C@@H](C)NC(=O)c3ccc(-n4cnnc4)cc3Cl)[nH]c2cc1C | 4.46 |  |
| Cc1cc2nc([C@@H](CNC(=O)c3ccc(-n4cnnc4)cc3Cl)c3ccccc3)[nH]c2cc1C | 7.80 | pKi (Coagulation factor X): 6.41; inhibition (INH) [1]: Not Active; inhibition (INH) [2]: Not Active |
| Cc1cc2nc([C@H](CNC(=O)c3ccc(-n4cnnc4)cc3Cl)c3ccccc3)[nH]c2cc1C | 6.28 |  |
| Cc1cc2nc(C(C)CNC(=O)c3ccc(-n4cnnc4)cc3Cl)[nH]c2cc1C (racemic) | 6.47 |  |
